Measurements as given in patent US20230172874A1, “USE OF CANNABIDIOL FOR THE TREATMENT OF INSOMNIA ASSOCIATED TO PAIN” (priority 2021, published 2023).
Entries after “also recorded” stand apart in the source; their conditions may differ.

How the values were obtained:
rats = details: cited from earlier work
neuropathic rats = test: EEG power spectra (delta, theta, sigma bands) during NREM and REM sleep; assay type: in vivo, male Wistar rats
Procedure: EEG and EMG recording. Six days after surgery (16 days post-SNI), mechanical allodynia was assessed via von Frey test, and EEG/EMG was recorded for a period of 6 h (from 6 AM to 12 PM). The treatments (described below) were performed at 6:00 A.M., right after the recording had started. […] Consecutive 10 s epochs were subjected to a fast Fourier transform (FFT), and EEG power spectra density was computed in the frequency range of 0-64 Hz^13.
To determine the variations in power spectra induced by the pharmacological treatment of CBD and antagonists, the power densities were summed up over the frequency band of 0-25 Hz (total power). The data were then standardized by expressing all power spectral densities at the different 0.5 Hz bin frequency ranges (delta, theta, and sigma) as a percentage relative to the total power of the same epoch^16. Frequency ranges were 0-3.5Hz for delta, 4-8.5Hz for theta, and 11-14 Hz for sigma bands. The sum of power densities over a frequency band following treatments were expressed as the percentage difference from that in or naïve+veh or NP+vehicle group in statistical analysis. In the experiments with WAY 100635 the NP+CBD was compared with NP+vehicle, NP+WAY, NP+WAY+CBD.
To assess whether CBD (20 mg/kg) might affect the microarchitecture during the sleep, the intensity Delta (0.5-4 Hz), Theta ([…]) and Sigma (10-15 Hz) waves were measured during 6 hours of light phase in the 3 groups of rats (Naïve, SNI+VEH and SNI+CBD 20mg/kg). Data were converted as a percentage of variation vs. naive animals and One-way ANOVA was performed on the power of delta, theta and sigma waves during NREM and REN sleep.
To assess whether the 5-HT1A selective antagonist WAY 100635 (2 mg/kg) might reverse the effect of CBD (20 mg/kg) in the enhancement of power density (Delta, Theta, and Sigma waves) during sleep, the power spectra were measured for 6 hours in four groups of rats. The first group were NP rats treated with CBD vehicle (n=8), the second group were NP rats treated with WAY 100635 alone at 2 mg/kg (n=6), the third group were NP rats treated with WAY 100635 (2 mg/kg)+CBD (20 mg/kg; n=6), and the fourth group were NP treated with CBD at 20 mg/kg (n=8). Data were converted as a percentage of variation vs NP animals treated with vehicle.

C=C(C)[C@@H]1CCC(C)=C[C@H]1c1c(O)cc(CCCCC)cc1O [CBD, 2-[(1R,6R)-3-methyl-6-prop-1-en-2-ylcyclohex-2-en-1-yl]-5-pentylbenzene-1,3-diol]
increase in SWS duration (rats; CBD dose of 40 mg/kg): not statistically significant
total percentage of sleep (rats; CBD doses of 10 and 40 mg/kg): significantly increased
power of Sigma waves during REM sleep, relative to NP rats treated with vehicle (neuropathic rats; 6 h, CBD 20 mg/kg): no statistically significant differences between groups; also recorded: no differences were found
power of Theta waves during REM sleep, relative to NP animals treated with vehicle (neuropathic rats; 6 h, CBD 20 mg/kg): no statistically significant differences between groups
power of theta waves during NREM sleep, relative to NP animals treated with vehicle (neuropathic rats; 6 h, CBD 20 mg/kg i.p.): increases the intensity of the Theta waves; also recorded: increase in the theta power
Sigma waves during NREM sleep, relative to NP rats treated with vehicle (neuropathic rats; 6 h, CBD 20 mg/kg, WAY 100635 2 mg/kg): no significant main effects; also recorded: did not detect differences
power of Delta waves during NREM sleep, relative to NP rats treated with vehicle (neuropathic rats; 6 h light phase, CBD 20 mg/kg i.p.): increase in the intensity of the power of Delta waves
power of Delta waves during REM sleep, between groups (ANOVA) (neuropathic rats; NP rats, 6 h, CBD 20 mg/kg, WAY 100635 2 mg/kg): no statistically significant differences between groups
